Data on 25 compounds can be found in US20250214942A1, “INHIBITORS OF RECEPTOR INTERACTING PROTEIN KINASE I FOR THE TREATMENT OF DISEASE” (Board of Regents, The University of Texas System, priority 2019, published 2025).

For one test, the target named is RIPK1 (Homo sapiens (Human), UniProt Q13546). Put plainly: ADP-Glo kinase assay (RIPK1 activity, conversion of ATP to ADP). The note with it: 5 nM RIPK1, 50 μM ATP, 6 h reaction; read-out: RIPK1 Enzyme Avg IC50. The format is biochemical. The method, boiled down:
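RIPK1 (5 nM final) was preincubated 10 min at rt with 1:3-diluted compounds in HEPES pH 7.5/MgCl2/DTT/BSA/CHAPS buffer. ATP (50 μM final) was then added for 6 h, and ADP formed was read by ADP-Glo luminescence. IC50 values came from four-parameter logistic fitting.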
On the technique in general: ADP-Glo first removes unused ATP, then detects ADP through luciferase.

Test [1] concerns human monocytic cell line U937. Put plainly: Human U937 cellular necroptosis assay (TNFalpha + z-VAD-FMK, Cell Titer-Glo viability). It is filed as cell-based. Particulars: Homo sapiens, U-937, 22 h, U937 cells, 25 ng/mL human TNFalpha + 25 μM z-VAD-FMK, read-out: hU937 Avg IC50. The method, boiled down:
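Readout is CellTiter-Glo 2.0 luminescence after 22 h at 37° C with compound, in cells triggered by human TNFalpha (25 ng/mL) and z-VAD-FMK (25 μM) in phenol red-free RPMI/10% FBS. Values are run-averaged IC50s from a four-parameter logistic curve.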
(ATP-based viability assays read luminescence as a measure of living cells.)

Each structure is given as a SMILES string. pIC50: −log10 of the molar value.

Chain of RIPK1 (Q13546 1-327): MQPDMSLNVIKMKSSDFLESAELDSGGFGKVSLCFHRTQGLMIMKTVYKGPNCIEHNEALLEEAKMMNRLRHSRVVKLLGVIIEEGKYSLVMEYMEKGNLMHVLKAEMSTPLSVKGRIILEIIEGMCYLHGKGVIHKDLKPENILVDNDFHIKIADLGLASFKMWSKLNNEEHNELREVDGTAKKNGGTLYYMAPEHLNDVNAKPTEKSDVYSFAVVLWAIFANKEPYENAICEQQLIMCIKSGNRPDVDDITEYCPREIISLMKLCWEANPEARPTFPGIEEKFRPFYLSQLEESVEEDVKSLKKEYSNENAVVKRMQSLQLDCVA

Take `N#Cc1ccc2c(cnn2CC23CC(C(=O)N4N=CCC4c4cncc(F)c4)(C2)C3)c1` (centres unmarked) [Example 128, 1-((3-(5-(5-fluoropyridin-3-yl)-4,5-dihydro-1H-pyrazole-1-carbonyl)bicyclo[1.1.1]-pentan-1-yl)methyl)-1H-indazole-5-carbonitrile]: the results for the negative logarithm of the IC50 (pIC50) (on RIPK1; in test [1]) were 7.77 and 7.32, respectively.
For `Cc1c2cc(C#N)ccc2nn1CC12CC(C(=O)N3N=CCC3c3cncc(F)c3)(C1)C2` (centres unmarked) [Example 129, 2-((3-(5-(5-fluoropyridin-3-yl)-4,5-dihydro-1H-pyrazole-1-carbonyl)bicyclo[1.1.1]-pentan-1-yl)methyl)-3-methyl-2H-indazole-5-carbonitrile], in that order: 6.29 and 5.41.
For `Cc1nn(CC23CC(C(=O)N4N=CCC4c4cncc(F)c4)(C2)C3)c2ccc(C#N)cc12` (centres unmarked) [Example 130, 1-((3-(5-(5-fluoropyridin-3-yl)-4,5-dihydro-1H-pyrazole-1-carbonyl)bicyclo[1.1.1]-pentan-1-yl)methyl)-3-mcthyl-1H-indazole-5-carbonitrile], in that order: 6.62 and 5.91.
For `Cc1cnc(C2CC=NN2C(=O)C23CC(Cn4cc(C#N)cn4)(C2)C3)cn1` (centres unmarked) [Example 131, 1-((3-(5-(5-methylpyrazin-2-yl)-4,5-dihydro-1H-pyrazole-1-carbonyl)bicyclo[1.1.1]-pentan-1-yl)methyl)-1H-pyrazole-4-carbonitrile], in that order: 6.43 and 5.72.
Turning to `Cc1ccc2c(cnn2CC23CC(C(=O)N4N=CCC4c4cncc(F)c4)(C2)C3)n1` (centres unmarked) [Example 132, (5-(5-fluoropyridin-3-yl)-4,5-dihydro-1H-pyrazol-1-yl)(3-((5-methyl-1H-pyrazolo[4,3-b]pyridin-1-yl)methyl)-bicyclo[1.1.1]pentan-1-yl)methanone], the negative logarithm of the IC50 (pIC50) on RIPK1 is 6.86; in test [1], 6.08.
For `O=C(N1N=CCC1c1cc(F)cc(F)c1)C12CC(Cn3ccc4cc(F)ccc43)(C1)C2` (centres unmarked) [Example 133, (5-(3,5-difluorophenyl)-4,5-dihydro-1H-pyrazol-1-yl)(3-((5-fluoro-1H-indol-1-yl)-methyl)bicyclo[1.1.1]pentan-1-yl)methanone], in that order: 7.70 and 8.00.
The corresponding values for `O=C(N1N=CCC1c1cc(F)cc(F)c1)C12CC(Cn3ccc4ncc(F)cc43)(C1)C2` (centres unmarked) [Example 134, (5-(3,5-difluorophenyl)-4,5-dihydro-1H-pyrazol-1-yl)(3-((6-fluoro-1H-pyrrolo[3,2-b]-pyridin-1-yl)methyl)-bicyclo[1.1.1]pentan-1-yl)methanone] are 7.62 and 7.34.
Take `O=C(N1N=CCC1c1cc(F)cc(F)c1)C12CC(Cn3ncc4nccnc43)(C1)C2` (centres unmarked) [Example 135, (3-((1H-pyrazolo[3,4-b]-pyrazin-1-yl)methyl)-bicyclo[1.1.1]pentan-1-yl)(5-(3,5-difluorophenyl)-4,5-dihydro-1H-pyrazol-1-yl)methanone]: the results for the pIC50 (on RIPK1; in test [1]) were 7.74 and 7.28, respectively.
For `O=C(N1N=CCC1c1cc(F)cc(F)c1)C12CC(Cn3ccc4cncnc43)(C1)C2` (centres unmarked) [Example 136, (3-((7H-pyrrolo[2,3-d]-pyrimidin-7-yl)methyl)-bicyclo[1.1.1]pentan-1-yl)(5-(3,5-difluorophenyl)-4,5-dihydro-1H-pyrazol-1-yl)-methanone], in that order: 7.70 and 7.24.
On to `N#Cc1cccc(C2CC=NN2C(=O)C23CC(Cn4cc(C#N)cn4)(C2)C3)c1` (centres unmarked) [Example 137, 1-((3-(5-(3-cyanophenyl)-4,5-dihydro-1H-pyrazole-1-carbonyl)bicyclo[1.1.1]-pentan-1-yl)methyl)-1H-pyrazole-4-carbonitrile], for which the negative-log IC50 (pIC50) was 6.42 on RIPK1 and 5.57 in test [1].
The corresponding values for `N#Cc1cnn(CC23CC(C(=O)N4N=CCC4c4ccccc4)(C2)C3)c1` (centres unmarked) [Example 138, 1-((3-(5-phenyl-4,5-dihydro-1H-pyrazole-1-carbonyl)-bicyclo[1.1.1]pentan-1-yl)methyl)-1H-pyrazole-4-carbonitrile] are 6.95 and 6.38.
For `N#Cc1cccc(C2CC=NN2C(=O)C23CC(Cn4ncc5ncccc54)(C2)C3)c1` (centres unmarked) [Example 139, 3-(1-(3-((1H-pyrazolo[4,3-b]-pyridin-1-yl)methyl)bicyclo-[1.1.1]pentane-1-carbonyl)-4,5-dihydro-1H-pyrazol-5-yl)benzonitrile], the pIC50 was 7.02 at RIPK1 and 6.31 in test [1].
On to `O=C(N1N=CCC1c1cc(F)cc(F)c1)C12CC(Cn3nc4ccccc4c3Cl)(C1)C2` (centres unmarked) [Example 140, (3-((3-chloro-2H-indazol-2-yl)methyl)bicyclo[1.1.1]-pentan-1-yl)(5-(3,5-difluorophenyl)-4,5-dihydro-1H-pyrazol-1-yl)methanone], for which the pIC50 was 7.31 on RIPK1 and 7.28 in test [1].
The corresponding values for `O=C(N1N=CCC1c1cc(F)cc(F)c1)C12CC(Cn3nc(Cl)c4ccccc43)(C1)C2` (centres unmarked) [Example 141, (3-((3-chloro-1H-indazol-1-yl)methyl)bicyclo[1.1.1]-pentan-1-yl)(5-(3,5-difluorophenyl)-4,5-dihydro-1H-pyrazol-1-yl)methanone] are 7.47 and 7.24.
Take `N#Cc1cccc2cn(CC34CC(C(=O)N5N=CCC5c5cc(F)cc(F)c5)(C3)C4)nc12` (centres unmarked) [Example 142, 2-((3-(5-(3,5-difluorophenyl)-4,5-dihydro-1H-pyrazole-1-carbonyl)bicyclo[1.1.1]pentan-1-yl)methyl)-2H-indazole-7-carbonitrile]: the results for the pIC50 (at RIPK1; in test [1]) were 7.10 and 6.12, respectively.
Consider `N#Cc1cccc2cnn(CC34CC(C(=O)N5N=CCC5c5cc(F)cc(F)c5)(C3)C4)c12` (centres unmarked) [Example 143, 1-((3-(5-(3,5-difluorophenyl)-4,5-dihydro-1H-pyrazole-1-carbonyl)bicyclo[1.1.1]-pentan-1-yl)methyl)-1H-indazole-7-carbonitrile], for which the negative logarithm of the IC50 (pIC50) on RIPK1 is 6.91; in test [1], 6.31.
For `O=C(N1N=CCC1c1cc(F)cc(F)c1)C12CC(Cn3cc4c(n3)CCC4)(C1)C2` (centres unmarked) [Example 144, (5-(3,5-difluorophenyl)-4,5-dihydro-1H-pyrazol-1-yl)(3-((5,6-dihydrocyclopenta[c]-pyrazol-2(4H)-yl)methyl)-bicyclo[1.1.1]pentan-1-yl)methanone], in that order: 6.84 and 5.93.
For the compound `O=C(N1N=CCC1c1cc(F)cc(F)c1)C12CC(Cn3ncc4c3CCC4)(C1)C2` (centres unmarked) [Example 145, (5-(3,5-difluorophenyl)-4,5-dihydro-1H-pyrazol-1-yl)(3-((5,6-dihydrocyclopenta[c]-pyrazol-1(4H)-yl)methyl)-bicyclo[1.1.1]pentan-1-yl)methanone], the pIC50 on RIPK1 is 6.77; in test [1], 6.15.
For `N#Cc1cnn2ccn(CC34CC(C(=O)N5N=CCC5c5cc(F)cc(F)c5)(C3)C4)c12` (centres unmarked) [Example 146, 1-((3-(5-(3,5-difluorophenyl)-4,5-dihydro-1H-pyrazole-1-carbonyl)bicyclo[1.1.1]-pentan-1-yl)methyl)-1H-imidazo[1,2-b]pyrazole-7-carbonitrile], in that order: 6.49 and 5.72.
For the compound `O=C(N1N=CCC1c1ccccc1)C12CC(Cn3ncc4ncccc43)(C1)C2` (centres unmarked) [Example 147, (3-((1H-pyrazolo[4,3-b]-pyridin-1-yl)methyl)-bicyclo[1.1.1]pentan-1-yl)(5-phenyl-4,5-dihydro-1H-pyrazol-1-yl)methanone], the pIC50 is 7.52 on RIPK1 and 6.85 in test [1].
`Cc1cnc(C2CC=NN2C(=O)C23CC(Cn4ncc5ncccc54)(C2)C3)cn1` (centres unmarked) [Example 151, (3-((1H-pyrazolo[4,3-b]-pyridin-1-yl)methyl)bicyclo-[1.1.1]pentan-1-yl)(5-(5-methylpyrazin-2-yl)-4,5-dihydro-1H-pyrazol-1-yl)methanone]: the pIC50 at RIPK1 is 6.62; in test [1], 5.92.
For `Cc1c2ccccc2nn1CC12CC(C(=O)N3N=CCC3c3cc(F)cc(F)c3)(C1)C2` (centres unmarked) [Example 152, (5-(3,5-difluorophenyl)-4,5-dihydro-1H-pyrazol-1-yl)(3-((3-methyl-2H-indazol-2-yl)-methyl)bicyclo[1.1.1]pentan-1-yl)methanone], in that order: 7.01 and 6.44.
For `Cc1nn(CC23CC(C(=O)N4N=CCC4c4cc(F)cc(F)c4)(C2)C3)c2ccccc12` (centres unmarked) [Example 153, (5-(3,5-difluorophenyl)-4,5-dihydro-1H-pyrazol-1-yl)(3-((3-methyl-1H-indazol-1-yl)-methyl)bicyclo[1.1.1]pentan-1-yl)methanone], in that order: 6.69 and 6.26.
For `N#CC1CCN(CC23CC(C(=O)N4N=CCC4c4cc(F)cc(F)c4)(C2)C3)C1` (centres unmarked) [Example 155, 1-((3-(5-(3,5-difluorophenyl)-4,5-dihydro-1H-pyrazole-1-carbonyl)bicyclo[1.1.1]-pentan-1-yl)methyl)-pyrrolidine-3-carbonitrile], in that order: 6.09 and 5.28.
Take `Cc1cnn(CC23CC(C(=O)N4N=CCC4c4cc(F)cc(F)c4)(C2)C3)c1C#N` (centres unmarked) [Example 156, 1-((3-(5-(3,5-difluorophenyl)-4,5-dihydro-1H-pyrazole-1-carbonyl)bicyclo[1.1.1]-pentan-1-yl)methyl)-4-methyl-1H-pyrazole-5-carbonitrile]: the pIC50 is 7.42 at RIPK1 and 6.80 in test [1].

For orientation: pIC50 means the negative decadic logarithm of the IC50, by convention in mol/L.
